Source: patent publication US20260021064A1, “ACETAMINOPHEN AND NAPROXEN FOR TREATING PAIN” (Kenvue Brands LLC, priority 2022, published 2026)
Read-outs that look alike come from different tables or passages of the source.

Key:
[1] = test system: pain after surgical extraction of four third molars; conditions: for PID Score, Least Squares Mean (Standard Error): PI-NRS 0-10, difference from baseline
Protocol: (§1) 1. Time-Weighted Sum of Pain Intensity Difference Score From Baseline (0 Hour) to 6 Hours (SPID 0-6) [Time Frame: Baseline (0 hour) up to 6 hours post-dose]. Time-weighted sum of the pain intensity difference (SPID) score was measured using a Pain Intensity-Numerical Rating Scale (PI-NRS) ranging from 0-10 (0=no pain, 10=very severe pain). The possible range of SPID for 0-6 hours was from −60 to 60. A higher value of SPID indicated greater pain relief. PID was the difference between baseline pain intensity and pain intensity at assessment. Time-weighted sum of the pain intensity difference scores were derived by first multiplying each PID score by the time from the previous time point and adding these time-weighted PID scores together over the intervals from 0 to 6 hours.
2. Time-weighted Sum of Pain Intensity Difference Score From Baseline (0 Hour) to 12 Hours (SPID 0-12) [Time Frame: Baseline (0 hour) up to 12 hours post-dose]. Time-weighted sum of the pain intensity difference score was measured using a PI-NRS ranging from 0-10 (0=no pain, 10=very severe pain). The possible range of SPID for 0-12 hours was from-120 to 120. A higher value of SPID indicated greater pain relief. PID was the difference between baseline pain intensity and pain intensity at assessment (12 hours). Time-weighted sum of the pain intensity difference scores were derived by first multiplying each PID score by the time from the previous time point and adding these time-weighted PID scores together over the intervals from 0 to 12 hours.
4. Time-Weighted Sum of Pain Intensity Difference Score From Baseline (0 Hour) to 8 Hours (SPID 0-8) [Time Frame: Baseline (0 hour) up to 8 hours post-dose]. Time-weighted sum of the pain intensity difference score was measured using a PI-NRS ranging from 0-10 (0=no pain, 10=very severe pain). The possible range of SPID for 0-8 hours was from −80 to 80. A higher value of SPID indicated greater pain relief. PID was the difference between baseline pain intensity and pain intensity at assessment (8 hours). Time-weighted sum of the pain intensity difference scores were derived by first multiplying each PID score by the time from the previous time point and adding these time-weighted PID scores together over the intervals from 0 to 8 hours.
6. Pain Intensity Difference (PID) Scores at Individual Time Points [Time Frame: 0.25 hours, 0.5 hours, 0.75 hours, 1 hours, 1.25 hours, 1.5 hours, 2 hours, 3 hours, 4 hours, 5 hours, 6 hours, 7 hours, 8 hours, 9 hours, 10 hours, 11 hours, and 12 hours]. Pain Intensity was self-reported over 12 hours, using a pain rating of 0-10 on the PI-NRS, with score ranged from 0-10 (0=no pain; 10 =worst imaginable pain). Pain intensity differences were calculated with respect to baseline at each time point after study drug administration.
as §1, with “Time-Weighted” for “1. Time-Weighted”, “0-6):” for “0-6) [Time Frame: Baseline (0 hour) up to 6 hours post-dose].”
Time-weighted Sum of Pain Intensity Difference Score From Baseline (0 Hour) to 12 Hours (SPID 0-12): Time-weighted sum of the pain intensity difference score was measured using a PI-NRS ranging from 0-10 (0=no pain, 10=very severe pain). The possible range of SPID for 0-12 hours was from-120 to 120. A higher value of SPID indicated greater pain relief. PID was the difference between baseline pain intensity and pain intensity at assessment (12 hours).

[2] = test system: pain after surgical extraction of four third molars; conditions: for PAR Score, Least Squares Mean (Standard Error): PR-NRS 0-10
Protocol: (§2) 1. Time-Weighted Sum of Total Pain Relief Score From Baseline (0 Hour) to 6 Hours (TOTPAR 0-6) [Time Frame: Baseline (0 hour) up to 6 hours post-dose]. Time-weighted total pain relief (TOTPAR) was measured using a Pain Relief Numerical Rating Scale (PR-NRS) ranging from 0-10 (0=no relief, 10=complete relief). Total pain relief scores (TOTPARs) were calculated by multiplying the pain relief score at each postdose time point by the duration (in hours) since the preceding time point and then summing these values. The minimum value was 0, and the maximum value was 60. Higher scores was indicative of more pain relief.
as §2, with “2.” for “1.”, “8” for “6”, “0-8)” for “0-6)”, “TOTPAR” for “Time-weighted total pain relief (TOTPAR)”, “PR-NRS” for “Pain Relief Numerical Rating Scale (PR-NRS)”, “80.” for “60.”
as §2, with “3.” for “1.”, “12” for “6”, “0-12)” for “0-6)”, “TOTPAR” for “Time-weighted total pain relief (TOTPAR)”, “PR-NRS” for “Pain Relief Numerical Rating Scale (PR-NRS)”, “120.” for “60.”
5. Pain Relief (PAR) Scores at Individual Timepoints [Time Frame: 0.25 hours, 0.5 hours, 0.75 hours, 1 hours, 1.25 hours, 1.5 hours, 2 hours, 3 hours, 4 hours, 5 hours, 6 hours, 7 hours, 8 hours, 9 hours, 10 hours, 11 hours, and 12 hours]. Participants answered a question at individual time points: “how much relief do you have from your starting pain?” on a 11-point PR-NRS. Scale ranged from 0=no relief to 10=complete relief. Higher score indicated improvement in pain.
as §2, with “Time-Weighted” for “1. Time-Weighted”, “0-6):” for “0-6) [Time Frame: Baseline (0 hour) up to 6 hours post-dose].”
(§3) Time-Weighted Sum of Total Pain Relief Score From baseline (0 Hour) to 8 Hours (TOTPAR 0-8): TOTPAR was measured using a PR-NRS ranging from 0-10 (0=no relief, 10=complete relief). Total pain relief scores (TOTPARs) were calculated by multiplying the pain relief score at each postdose time point by the duration (in hours) since the preceding time point and then summing these values. The minimum value was 0, and the maximum value was 80. Higher scores was indicative of more pain relief.
as §3, with “Baseline” for “baseline”, “Hour” for “Hour)”, “12” for “8”, “0-12):” for “0-8):”, “120.” for “80.”
Pain Relief (PAR) Scores at Timepoints: Participants answered a question at individual time points: “how much relief do you have from your starting pain?” on a 11-point PR-NRS. Scale ranged from 0-no relief to 10-complete relief.

[3] = test system: pain after surgical extraction of four third molars; conditions: single oral dose; up to 12 hours; scale poor (0) to excellent (4)
Protocol: Participant's Global Evaluation of Study Medication OR Overall Impression of Study Medication According to Participant's Global Evaluation [Time Frame: Up to 12 hours]. Participants were asked to rate their overall impression of the study medication using the following scale: poor (0), fair (1), good (2), very good (3), and excellent (4) where higher score represented better outcome.
Participant's Global Evaluation of Study Medication OR Overall Impression of Study Medication According to Participant's Global Evaluation: Participants were asked to rate their overall impression of the study medication using the following scale: poor (0), fair (1), good (2), very good (3), and excellent (4) where higher score represented better outcome

COc1ccc2cc([C@H](C)C(=O)O)ccc2c1 [Arm 2: Naproxen Sodium 440 mg, naproxen sodium]
PID Score, Least Squares Mean (Standard Error) ([1]; 0.25 Hours post-dose): 0.58 (0.15)
PID Score, Least Squares Mean (Standard Error) ([1]; 0.5 Hours post-dose): 1.82 (0.24)
PID Score, Least Squares Mean (Standard Error) ([1]; 0.75 Hours post-dose): 3.15 (0.27)
PID Score, Least Squares Mean (Standard Error) ([1]; 1 Hours post-dose): 3.97 (0.28)
PID Score, Least Squares Mean (Standard Error) ([1]; 1.25 Hours post-dose): 4.50 (0.28)
PID Score, Least Squares Mean (Standard Error) ([1]; 1.5 Hours post-dose): 4.72 (0.28)
PID Score, Least Squares Mean (Standard Error) ([1]; 2 Hours post-dose): 4.87 (0.28)
PID Score, Least Squares Mean (Standard Error) ([1]; 3 Hours post-dose): 4.75 (0.30)
PID Score, Least Squares Mean (Standard Error) ([1]; 4 Hours post-dose): 4.63 (0.31)
PID Score, Least Squares Mean (Standard Error) ([1]; 5 Hours post-dose): 4.59 (0.32)
PID Score, Least Squares Mean (Standard Error) ([1]; 6 Hours post-dose): 4.50 (0.32)
PID Score, Least Squares Mean (Standard Error) ([1]; 7 Hours post-dose): 4.36 (0.32)
PID Score, Least Squares Mean (Standard Error) ([1]; 9 Hours post-dose): 4.04 (0.33)
PID Score, Least Squares Mean (Standard Error) ([1]; 10 Hours post-dose): 4.01 (0.35)
PID Score, Least Squares Mean (Standard Error) ([1]; 11 Hours post-dose): 3.99 (0.35)
PID Score, Least Squares Mean (Standard Error) ([1]; 12 Hours post-dose): 3.91 (0.36)
Time-Weighted Sum of Pain Intensity Difference Score From Baseline (0 Hour) to 6 Hours (SPID 0-6), Least Squares Mean (Standard Error) ([1]; single oral dose, possible range -60 to 60, higher = greater pain relief): 25.59 (1.562)
Time-Weighted Sum of Pain Intensity Difference Score From Baseline (0 Hour) to 8 Hours (SPID 0-8), Least Squares Mean (Standard Error) ([1]; single oral dose, possible range -80 to 80, higher = greater pain relief): 34.11
Time-weighted Sum of Pain Intensity Difference Score From Baseline (0 Hour) to 12 Hours (SPID 0-12), Least Squares Mean (Standard Error) ([1]; single oral dose, possible range -120 to 120, higher = greater pain relief): 50.07 (3.341)
PAR Score, Least Squares Mean (Standard Error) ([2]; 0.25 Hours post-dose): 0.80 (0.18)
PAR Score, Least Squares Mean (Standard Error) ([2]; 0.5 Hours post-dose): 2.27 (0.31)
PAR Score, Least Squares Mean (Standard Error) ([2]; 0.75 Hours post-dose): 4.11 (0.35)
PAR Score, Least Squares Mean (Standard Error) ([2]; 1 Hours post-dose): 5.29 (0.35)
PAR Score, Least Squares Mean (Standard Error) ([2]; 1.25 Hours post-dose): 5.99 (0.35)
PAR Score, Least Squares Mean (Standard Error) ([2]; 1.5 Hours post-dose): 6.36 (0.34)
PAR Score, Least Squares Mean (Standard Error) ([2]; 2 Hours post-dose): 6.62 (0.34)
PAR Score, Least Squares Mean (Standard Error) ([2]; 3 Hours post-dose): 6.52 (0.35)
PAR Score, Least Squares Mean (Standard Error) ([2]; 4 Hours post-dose): 1.46 (0.36)
PAR Score, Least Squares Mean (Standard Error) ([2]; 5 Hours post-dose): 6.45 (0.37)
PAR Score, Least Squares Mean (Standard Error) ([2]; 6 Hours post-dose): 6.26 (0.38)
PAR Score, Least Squares Mean (Standard Error) ([2]; 8 Hours post-dose): 5.95 (0.39)
PAR Score, Least Squares Mean (Standard Error) ([2]; 9 Hours post-dose): 5.73 (0.40)
PAR Score, Least Squares Mean (Standard Error) ([2]; 10 Hours post-dose): 5.71 (0.42)
PAR Score, Least Squares Mean (Standard Error) ([2]; 11 Hours post-dose): 5.71 (0.43)
PAR Score, Least Squares Mean (Standard Error) ([2]; 12 Hours post-dose): 5.62 (0.44)
Time-Weighted Sum of Total Pain Relief Score From Baseline (0 Hour) to 6 Hours (TOTPAR 0-6), Least Squares Mean (Standard Error) ([2]; single oral dose, range 0 to 60, higher = more pain relief): 35.20 (1.848)
Time-Weighted Sum of Total Pain Relief Score From baseline (0 Hour) to 8 Hours (TOTPAR 0-8), Least Squares Mean (Standard Error) ([2]; single oral dose, range 0 to 80, higher = more pain relief): 47.19
Time-Weighted Sum of Total Pain Relief Score From Baseline (0 Hour to 12 Hours (TOTPAR 0-12), Least Squares Mean (Standard Error)) ([2]; single oral dose, range 0 to 120, higher = more pain relief): 69.96
Participant's Global Evaluation of Study Medication, Least Squares Mean (Standard Error) [3]: 2.7 (0.13)
